#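 In this assay, cells in 96-well plates receive the compound at five concentrations for 48 hours. Endpoints are linearly interpolated between the surrounding concentrations. At the GI50, growth is halved. TGI denotes the concentration required for complete inhibition of growth.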
# Legend:
# Assay in all cases: growth of human tumour cells (NCI), 48 h
# HOP-62 NSCLC = test system: HOP-62 NSCLC
# EKVX NSCLC = test system: EKVX NSCLC
# SK-MEL-5 melanoma = test system: SK-MEL-5 melanoma
# 786-0 renal = test system: 786-0 renal
# KM12 colon = test system: KM12 colon
# NCI-H226 lung = test system: NCI-H226 lung
# SK-MEL-28 melanoma = test system: SK-MEL-28 melanoma
# NCI-H23 lung = test system: NCI-H23 lung
# PC-3 prostate = test system: PC-3 prostate
# SF-539 CNS = test system: SF-539 CNS
# OVCAR-3 ovarian = test system: OVCAR-3 ovarian
# M14 melanoma = test system: M14 melanoma
# U251 CNS = test system: U251 CNS
# UACC-257 melanoma = test system: UACC-257 melanoma
# SR leukemia = test system: SR leukemia
# SF-268 CNS = test system: SF-268 CNS
# MDA-MB-231 breast = test system: MDA-MB-231 breast
# HCC-2998 colon = test system: HCC-2998 colon
# SK-MEL-2 melanoma = test system: SK-MEL-2 melanoma
# NCI-H522 lung = test system: NCI-H522 lung
# SNB-75 CNS = test system: SNB-75 CNS
# HOP-92 NSCLC = test system: HOP-92 NSCLC
# DU-145 prostate = test system: DU-145 prostate
# SW-620 colon = test system: SW-620 colon
# UO-31 renal = test system: UO-31 renal
# OVCAR-4 ovarian = test system: OVCAR-4 ovarian
# MCF7 breast = test system: MCF7 breast
# OVCAR-5 ovarian = test system: OVCAR-5 ovarian
# IGROV1 ovarian = test system: IGROV1 ovarian
# A498 renal = test system: A498 renal
# SK-OV-3 ovarian = test system: SK-OV-3 ovarian
# MDA-MB-468 breast = test system: MDA-MB-468 breast
# HCT-15 colon = test system: HCT-15 colon
# ACHN renal = test system: ACHN renal
# SNB-19 CNS = test system: SNB-19 CNS
# HT29 colon = test system: HT29 colon
# UACC-62 melanoma = test system: UACC-62 melanoma
# RXF 393 renal = test system: RXF 393 renal
# TK-10 renal = test system: TK-10 renal
# LOX IMVI melanoma = test system: LOX IMVI melanoma
# COLO 205 colon = test system: COLO 205 colon
# OVCAR-8 ovarian = test system: OVCAR-8 ovarian
# RPMI-8226 leukemia = test system: RPMI-8226 leukemia
# HS 578T breast = test system: HS 578T breast
# MOLT-4 leukemia = test system: MOLT-4 leukemia
# CCRF-CEM leukemia = test system: CCRF-CEM leukemia
# HL-60(TB) leukemia = test system: HL-60(TB) leukemia
# MDA-MB-435 = test system: MDA-MB-435
# NCI-H460 lung = test system: NCI-H460 lung
# T-47D breast = test system: T-47D breast
# BT-549 breast = test system: BT-549 breast
# CAKI-1 renal = test system: CAKI-1 renal
# SF-295 CNS = test system: SF-295 CNS
# MALME-3M melanoma = test system: MALME-3M melanoma
# A549 NSCLC = test system: A549 NSCLC
# K-562 leukemia = test system: K-562 leukemia
# HCT-116 colon = test system: HCT-116 colon
smiles,measurement,setting,value
N#C[Se]CC(=O)Nc1cccc(C(F)(F)F)c1,GI50,HOP-62 NSCLC,3.41 µM
same,TGI,HOP-62 NSCLC,9.67 µM
same,GI50,EKVX NSCLC,1.46 µM
same,TGI,EKVX NSCLC,2.94 µM
same,GI50,SK-MEL-5 melanoma,1.19 µM
same,TGI,SK-MEL-5 melanoma,2.78 µM
same,GI50,786-0 renal,2.25 µM
same,TGI,786-0 renal,4.92 µM
same,GI50,KM12 colon,6.87 µM
same,TGI,KM12 colon,33.8 µM
same,GI50,NCI-H226 lung,1.78 µM
same,TGI,NCI-H226 lung,4.74 µM
same,GI50,SK-MEL-28 melanoma,2.01 µM
same,TGI,SK-MEL-28 melanoma,5.07 µM
same,GI50,NCI-H23 lung,2.25 µM
same,TGI,NCI-H23 lung,5.59 µM
same,GI50,PC-3 prostate,5.77 µM
same,TGI,PC-3 prostate,31 µM
same,GI50,SF-539 CNS,1.78 µM
same,TGI,SF-539 CNS,3.25 µM
same,GI50,OVCAR-3 ovarian,2.33 µM
same,TGI,OVCAR-3 ovarian,7.21 µM
same,GI50,M14 melanoma,1.9 µM
same,TGI,M14 melanoma,5.02 µM
same,GI50,U251 CNS,2.13 µM
same,TGI,U251 CNS,5.52 µM
same,GI50,UACC-257 melanoma,3.1 µM
same,TGI,UACC-257 melanoma,19.9 µM
same,GI50,SR leukemia,5.35 µM
same,TGI,SR leukemia,> 100 µM
same,GI50,SF-268 CNS,3.16 µM
same,TGI,SF-268 CNS,12.2 µM
same,GI50,MDA-MB-231 breast,1.85 µM
same,TGI,MDA-MB-231 breast,3.67 µM
same,GI50,HCC-2998 colon,13.7 µM
same,TGI,HCC-2998 colon,29.5 µM
same,GI50,SK-MEL-2 melanoma,9.03 µM
same,TGI,SK-MEL-2 melanoma,47.8 µM
same,GI50,NCI-H522 lung,3.62 µM
same,TGI,NCI-H522 lung,14.5 µM
same,GI50,SNB-75 CNS,1.72 µM
same,TGI,SNB-75 CNS,5.26 µM
same,GI50,HOP-92 NSCLC,1.84 µM
same,TGI,HOP-92 NSCLC,3.63 µM
same,GI50,DU-145 prostate,1.9 µM
same,TGI,DU-145 prostate,4.32 µM
same,GI50,SW-620 colon,2.41 µM
same,TGI,SW-620 colon,5.55 µM
same,GI50,UO-31 renal,1.3 µM
same,TGI,UO-31 renal,2.65 µM
same,GI50,OVCAR-4 ovarian,5.93 µM
same,TGI,OVCAR-4 ovarian,62 µM
same,GI50,MCF7 breast,2.72 µM
same,TGI,MCF7 breast,20 µM
same,GI50,OVCAR-5 ovarian,2.69 µM
same,TGI,OVCAR-5 ovarian,7.17 µM
same,GI50,IGROV1 ovarian,1.55 µM
same,TGI,IGROV1 ovarian,3.57 µM
same,GI50,A498 renal,3.95 µM
same,TGI,A498 renal,17.7 µM
same,GI50,SK-OV-3 ovarian,8.34 µM
same,TGI,SK-OV-3 ovarian,31.9 µM
same,GI50,MDA-MB-468 breast,1.71 µM
same,TGI,MDA-MB-468 breast,3.44 µM
same,GI50,HCT-15 colon,1.72 µM
same,TGI,HCT-15 colon,3.31 µM
same,GI50,ACHN renal,3.29 µM
same,TGI,ACHN renal,9.98 µM
same,GI50,SNB-19 CNS,1.86 µM
same,TGI,SNB-19 CNS,4.08 µM
same,GI50,HT29 colon,3.66 µM
same,TGI,HT29 colon,15.2 µM
same,GI50,UACC-62 melanoma,1.73 µM
same,TGI,UACC-62 melanoma,4.33 µM
same,GI50,RXF 393 renal,2.37 µM
same,TGI,RXF 393 renal,6.01 µM
same,GI50,TK-10 renal,2.55 µM
same,TGI,TK-10 renal,6.79 µM
same,GI50,LOX IMVI melanoma,1.49 µM
same,TGI,LOX IMVI melanoma,3.21 µM
same,GI50,COLO 205 colon,10.1 µM
same,TGI,COLO 205 colon,24.3 µM
same,GI50,OVCAR-8 ovarian,2.01 µM
same,TGI,OVCAR-8 ovarian,4.48 µM
same,GI50,RPMI-8226 leukemia,18.3 µM
same,TGI,RPMI-8226 leukemia,86.7 µM
same,GI50,HS 578T breast,2.46 µM
same,TGI,HS 578T breast,9.3 µM
same,GI50,MOLT-4 leukemia,3.77 µM
same,TGI,MOLT-4 leukemia,26.2 µM
same,GI50,CCRF-CEM leukemia,4.34 µM
same,TGI,CCRF-CEM leukemia,34.6 µM
same,GI50,HL-60(TB) leukemia,2.22 µM
same,TGI,HL-60(TB) leukemia,6.31 µM
same,GI50,MDA-MB-435,1.95 µM
same,TGI,MDA-MB-435,4.35 µM
same,GI50,NCI-H460 lung,2.47 µM
same,TGI,NCI-H460 lung,9.83 µM
same,GI50,T-47D breast,6.48 µM
same,TGI,T-47D breast,86.6 µM
same,GI50,BT-549 breast,1.57 µM
same,TGI,BT-549 breast,3.05 µM
same,GI50,CAKI-1 renal,2.23 µM
same,TGI,CAKI-1 renal,4.77 µM
same,GI50,SF-295 CNS,2.04 µM
same,TGI,SF-295 CNS,4.1 µM
same,GI50,MALME-3M melanoma,1.51 µM
same,TGI,MALME-3M melanoma,3.24 µM
same,GI50,A549 NSCLC,1.87 µM
same,TGI,A549 NSCLC,4.27 µM
same,GI50,K-562 leukemia,6.02 µM
same,TGI,K-562 leukemia,> 100 µM
same,GI50,HCT-116 colon,1.92 µM
same,TGI,HCT-116 colon,4.16 µM

# Reference: PubChem BioAssay (NCI)
